Data published in US20040067540A1, “Rapid method for screening compounds for in vivo activity” (priority 2003, published 2004).

test system: p21^WAF1/Clp1 promoter; experiment: Hollow fiber p21^WAF1/Clp1 promoter-luciferase reporter assay: light emission from Fibers with H1299C2 cells retrieved from dosed mice; assay type: in vivo, mouse (mouse (human H1299C2 cells in hollow fibers) H1299C2 cells in hollow fibers); conditions: H1299C2 cells in hollow fibers implanted s.c. in athymic nude mice; single intravenous dose 50, 25 or 12.5 mg/kg; Fibers retrieved 24 hours after dosing; p<0.01, one tailed Student t-test
Procedure: A human lung cancer cell line, H1299, is obtained from the American Type Culture Collection, ATCC, Rockville, Md.) and cultured in the RPMI 1640 medium supplemented with 10% heat-inactivated Fetal Bovine Serum (Life Technologies, Grand Island, N.Y.). Cells harvested at approx. 85% confluency are washed with ice cold phosphate buffered saline (PBS) and suspended in the ice cold PBS at a concentration of 2×10^7 cells/mL. One half of one mL of the cell suspension is used for transfection with 10 μg of p21^WAF1/Clp1 luciferase plasmid and NeotetR selectable marker. Transfection is performed by electroporation at […]. Cells are then plated in the above medium containing 0.4 mg/mL G-418 (Life Technologies, Grand Island, N.Y.). One colony is selected, diluted to one cell/well and a single clone is expanded to generate p21^WAF1/Clp1 promoter-luciferase stable cell line designated H1299C2. The cell line tests negative for Mycoplasma contamination (Rapid Detection System by Gen-Probe, Inc., San Diego, Calif.) and for Mouse Antibody Production (MA BioServices, Inc., Rockville, Md.).
The H1299C2 cell line is propagated and expanded for implantation in RPMI 1640 medium containing 10% heat-inactivated Fetal Bovine Serum (Life Technologies, Grand Island, N.Y.) in a cell culture incubator, at 37° C. with humidified atmosphere, containing 5% CO2. […]

SMILES	expression of the reporter gene (firefly luciferase) in vivo as judged by registered light emission from the Fibers
Cc1[nH]c2ccccc2c1CCNCc1ccc(/C=C/C(=O)NO)cc1 [compound 2, N-hydroxy-3-[4-[[[2-(2-methyl-1H-indol-3-yl)-ethyl]-amino]methyl]phenyl]-2E-2-propenamide]	statistically significant (p<0.01, one tailed Student t-test) and reproducible expression of the reporter gene
O=C(/C=C/c1ccc(CN(CCO)CCc2c[nH]c3ccccc23)cc1)NO [compound 1, N-hydroxy-3-[4-[[(2-hydroxyethyl)[2-(1H-indol-3-yl)-ethyl]-amino]methyl]phenyl]-2E-2-propenamide]	statistically significant (p<0.01, one tailed Student t-test) and reproducible expression of the reporter gene

test system: various tumor cell lines; experiment: Present method: tumor cells in implanted encapsulation device, response to antitumor agents; assay type: in vivo; conditions: not given
Description: The present method can be utilized as a first line screen to test potential drug candidates for in vivo efficacy.

SMILES	activity when tested on various tumor cell lines with the present method
O=c1[nH]cc(F)c(=O)[nH]1 [5-fluorouracil]	significant activity
CO[C@@]12[C@H](COC(N)=O)C3=C(C(=O)C(C)=C(N)C3=O)N1C[C@@H]1N[C@@H]12 [mitomycin C]	significant activity
CC[C@@]1(O)C(=O)OCc2c1cc1n(c2=O)Cc2cc3ccccc3nc2-1 [camptothecin]	significant activity
N.N.[Cl][Pt][Cl] [cis-platinum]	significant activity
CC(=O)O[C@H]1C(=O)[C@@]2(C)[C@H]([C@H](OC(=O)c3ccccc3)[C@]3(O)C[C@H](OC(=O)[C@H](O)[C@@H](NC(=O)c4ccccc4)c4ccccc4)C(C)=C1C3(C)C)[C@]1(OC(C)=O)CO[C@@H]1C[C@@H]2O [paclitaxel]	significant activity
COc1cccc2c1C(=O)c1c(O)c3c(c(O)c1C2=O)C[C@@](O)(C(=O)CO)C[C@@H]3O[C@H]1C[C@H](N)[C@H](O)[C@H](C)O1 [doxorubicin]	significant activity
O=C1c2c(O)ccc(O)c2C(=O)c2c(NCCNCCO)ccc(NCCNCCO)c21 [mitoxantrone]	significant activity
COc1cc([C@@H]2c3cc4c(cc3[C@@H](O[C@@H]3O[C@@H]5CO[C@@H](C)O[C@H]5[C@H](O)[C@H]3O)[C@H]3COC(=O)[C@H]23)OCO4)cc(OC)c1O [etoposide]	significant activity
CC[C@]1(O)C[C@H]2CN(CCc3c([nH]c4ccccc34)[C@@](C(=O)OC)(c3cc4c(cc3OC)N(C=O)[C@H]3[C@@](O)(C(=O)OC)[C@H](OC(C)=O)[C@]5(CC)C=CCN6CC[C@]43[C@@H]65)C2)C1 [vincristine]	significant activity
